From PMC3130079 (2011)

Target: TRPA1 (Mus musculus, UniProt Q8BLA8)
Experiment: Ca2+ imaging and whole-cell patch clamp in TRPA1-transfected CHO cells
Type: cell-based

Chain of TRPA1 (Q8BLA8 whole entry): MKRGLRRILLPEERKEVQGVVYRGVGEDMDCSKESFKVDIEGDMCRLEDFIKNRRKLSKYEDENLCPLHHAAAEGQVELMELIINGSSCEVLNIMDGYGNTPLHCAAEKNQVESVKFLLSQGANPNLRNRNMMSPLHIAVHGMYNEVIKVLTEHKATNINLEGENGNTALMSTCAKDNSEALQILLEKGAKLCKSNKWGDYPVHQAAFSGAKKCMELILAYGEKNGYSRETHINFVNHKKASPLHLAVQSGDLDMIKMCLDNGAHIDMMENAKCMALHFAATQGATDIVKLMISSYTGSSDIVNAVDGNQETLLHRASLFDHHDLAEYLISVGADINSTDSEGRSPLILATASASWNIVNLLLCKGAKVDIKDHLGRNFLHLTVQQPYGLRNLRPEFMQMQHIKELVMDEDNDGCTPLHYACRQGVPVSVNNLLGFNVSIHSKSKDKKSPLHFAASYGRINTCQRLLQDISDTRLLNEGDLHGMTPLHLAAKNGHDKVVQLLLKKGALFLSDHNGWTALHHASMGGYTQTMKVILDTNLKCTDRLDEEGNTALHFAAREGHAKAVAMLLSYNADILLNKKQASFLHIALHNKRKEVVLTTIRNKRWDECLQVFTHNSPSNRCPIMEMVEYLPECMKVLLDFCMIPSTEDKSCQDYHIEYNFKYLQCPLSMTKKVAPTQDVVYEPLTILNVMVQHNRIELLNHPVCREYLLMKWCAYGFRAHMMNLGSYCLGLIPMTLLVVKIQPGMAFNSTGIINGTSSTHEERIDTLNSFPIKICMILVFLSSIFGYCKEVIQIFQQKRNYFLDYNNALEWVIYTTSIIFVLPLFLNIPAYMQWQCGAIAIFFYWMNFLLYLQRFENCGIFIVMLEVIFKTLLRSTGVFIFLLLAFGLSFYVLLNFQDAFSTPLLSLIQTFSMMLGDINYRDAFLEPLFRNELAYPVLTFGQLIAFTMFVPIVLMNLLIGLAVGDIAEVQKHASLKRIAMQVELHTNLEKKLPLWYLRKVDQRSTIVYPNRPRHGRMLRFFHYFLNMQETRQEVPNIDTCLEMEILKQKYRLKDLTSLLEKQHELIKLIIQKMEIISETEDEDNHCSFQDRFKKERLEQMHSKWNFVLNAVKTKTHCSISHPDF

Structure (SMILES): COc1ccc(C(=O)c2c(C)n(CCN3CCOCC3)c3cc(I)ccc23)cc1 [AM630]
- EC50: 2000 nM
